Data as given in ChEMBL document CHEMBL5465560, “Selectivity Literature for EUbOPEN Chemogenomic Library” (2024).

Legend:
[1] = target: TRAF2 and NCK-interacting protein kinase (Homo sapiens) (UniProt Q9UKE5); settings: at 10 µM
[2] = target: Serine/threonine-protein kinase OSR1 (Homo sapiens) (UniProt O95747); settings: at 10 µM
[3] = target: Platelet-derived growth factor receptor beta (Homo sapiens, UniProt P09619); assay: Selectivity interaction (Ambit KINOMEscan and KiNATiv profiling in Jurkat cells) EUB0000090b PDGFRB; assay type: cell-based; settings: at 1 µM
Platelet-derived growth factor receptor beta, sequence (P09619 whole entry): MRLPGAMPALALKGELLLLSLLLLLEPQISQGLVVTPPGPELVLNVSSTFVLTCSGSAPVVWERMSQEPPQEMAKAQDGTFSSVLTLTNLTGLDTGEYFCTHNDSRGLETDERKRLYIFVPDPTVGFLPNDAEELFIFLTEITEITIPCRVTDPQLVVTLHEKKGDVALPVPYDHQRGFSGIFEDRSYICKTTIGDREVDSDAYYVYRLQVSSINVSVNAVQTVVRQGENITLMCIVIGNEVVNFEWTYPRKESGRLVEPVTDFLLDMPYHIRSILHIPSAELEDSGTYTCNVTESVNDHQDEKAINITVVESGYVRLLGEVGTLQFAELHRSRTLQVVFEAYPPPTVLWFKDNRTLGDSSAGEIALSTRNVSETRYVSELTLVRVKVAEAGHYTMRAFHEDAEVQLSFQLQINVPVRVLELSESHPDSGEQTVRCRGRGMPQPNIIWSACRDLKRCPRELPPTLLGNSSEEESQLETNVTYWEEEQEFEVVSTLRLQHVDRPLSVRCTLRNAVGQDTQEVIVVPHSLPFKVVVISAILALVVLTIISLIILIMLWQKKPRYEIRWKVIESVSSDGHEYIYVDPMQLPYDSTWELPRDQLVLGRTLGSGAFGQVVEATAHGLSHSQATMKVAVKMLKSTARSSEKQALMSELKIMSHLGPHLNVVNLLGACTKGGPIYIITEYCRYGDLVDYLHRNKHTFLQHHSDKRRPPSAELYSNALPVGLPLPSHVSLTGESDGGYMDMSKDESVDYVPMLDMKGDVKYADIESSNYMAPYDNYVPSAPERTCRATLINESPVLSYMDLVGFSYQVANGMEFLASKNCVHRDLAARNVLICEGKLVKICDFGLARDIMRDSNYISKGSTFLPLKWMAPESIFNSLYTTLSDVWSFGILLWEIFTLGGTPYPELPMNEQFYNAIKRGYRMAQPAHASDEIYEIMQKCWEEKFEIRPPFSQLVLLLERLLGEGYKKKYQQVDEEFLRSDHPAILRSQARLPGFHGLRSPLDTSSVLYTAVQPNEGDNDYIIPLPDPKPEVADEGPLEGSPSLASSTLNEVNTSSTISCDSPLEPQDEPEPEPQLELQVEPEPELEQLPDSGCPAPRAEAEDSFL

[4] = target: Hepatocyte growth factor-like protein (Homo sapiens) (UniProt P26927); assay: Selectivity interaction (Ambit KINOMEscan and KiNATiv profiling in Jurkat cells) EUB0000090b MST1; assay type: cell-based; settings: at 1 µM
[5] = target: Ribosomal protein S6 kinase alpha-3 (Homo sapiens, UniProt P51812); assay: Selectivity interaction (ActivX KiNativ screen (kinase selectivity in THP-1 cell lysates)) EUB0000639a RPS6KA3; assay type: subcellular; settings: lysate, at 0.01 µM
[6] = target: T1, Scaffold protein ILK (Homo sapiens) (UniProt Q13418); assay: Selectivity interaction (ActivX KiNativ screen (kinase selectivity in THP-1 cell lysates)) EUB0000639a ILK; assay type: subcellular; settings: lysate, at 0.2 µM
T1 sequence (whole entry): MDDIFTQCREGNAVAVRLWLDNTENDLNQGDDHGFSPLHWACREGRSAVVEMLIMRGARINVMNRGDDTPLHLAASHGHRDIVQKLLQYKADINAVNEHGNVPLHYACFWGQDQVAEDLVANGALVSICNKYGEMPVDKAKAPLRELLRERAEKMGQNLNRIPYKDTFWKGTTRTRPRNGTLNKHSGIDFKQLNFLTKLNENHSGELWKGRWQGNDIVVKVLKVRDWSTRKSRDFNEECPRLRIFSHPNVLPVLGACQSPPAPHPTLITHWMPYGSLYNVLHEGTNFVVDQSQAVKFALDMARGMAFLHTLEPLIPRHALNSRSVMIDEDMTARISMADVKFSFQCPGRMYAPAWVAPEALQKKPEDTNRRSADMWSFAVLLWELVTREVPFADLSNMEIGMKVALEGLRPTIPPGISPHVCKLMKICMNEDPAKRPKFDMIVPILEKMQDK

[7] = target: Dual specificity protein kinase CLK4 (Homo sapiens, UniProt Q9HAZ1); assay: Selectivity interaction (Enzymatic assay) EUB0001550a CLK4
[8] = target: SRSF protein kinase 2 (Homo sapiens) (UniProt P78362); assay: Selectivity interaction (KinomeScan (DiscoverX)) EUB0000695a SRPK2; settings: at 100 nM
[9] = target: T2, Dual specificity mitogen-activated protein kinase kinase 3 (Homo sapiens) (UniProt P46734); assay: Selectivity interaction (KinomeScan (DiscoverX)) EUB0000595a MAP2K3; settings: at 10 µM
T2 sequence (whole entry): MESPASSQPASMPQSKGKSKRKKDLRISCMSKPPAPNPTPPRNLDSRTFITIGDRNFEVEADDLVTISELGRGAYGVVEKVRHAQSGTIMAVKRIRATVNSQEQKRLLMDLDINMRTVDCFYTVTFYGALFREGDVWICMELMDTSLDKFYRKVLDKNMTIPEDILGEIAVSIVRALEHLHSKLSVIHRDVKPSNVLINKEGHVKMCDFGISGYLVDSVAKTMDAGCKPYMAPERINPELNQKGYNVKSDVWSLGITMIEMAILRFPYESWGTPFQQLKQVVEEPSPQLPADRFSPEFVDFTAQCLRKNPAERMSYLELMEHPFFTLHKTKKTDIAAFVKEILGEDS

[10] = target: T3, Tyrosine-protein kinase ITK/TSK (Homo sapiens) (UniProt Q08881); assay: Selectivity interaction (KinomeScan (DiscoverX)) EUB0001079a ITK; settings: at 1 µM
T3 sequence (whole entry): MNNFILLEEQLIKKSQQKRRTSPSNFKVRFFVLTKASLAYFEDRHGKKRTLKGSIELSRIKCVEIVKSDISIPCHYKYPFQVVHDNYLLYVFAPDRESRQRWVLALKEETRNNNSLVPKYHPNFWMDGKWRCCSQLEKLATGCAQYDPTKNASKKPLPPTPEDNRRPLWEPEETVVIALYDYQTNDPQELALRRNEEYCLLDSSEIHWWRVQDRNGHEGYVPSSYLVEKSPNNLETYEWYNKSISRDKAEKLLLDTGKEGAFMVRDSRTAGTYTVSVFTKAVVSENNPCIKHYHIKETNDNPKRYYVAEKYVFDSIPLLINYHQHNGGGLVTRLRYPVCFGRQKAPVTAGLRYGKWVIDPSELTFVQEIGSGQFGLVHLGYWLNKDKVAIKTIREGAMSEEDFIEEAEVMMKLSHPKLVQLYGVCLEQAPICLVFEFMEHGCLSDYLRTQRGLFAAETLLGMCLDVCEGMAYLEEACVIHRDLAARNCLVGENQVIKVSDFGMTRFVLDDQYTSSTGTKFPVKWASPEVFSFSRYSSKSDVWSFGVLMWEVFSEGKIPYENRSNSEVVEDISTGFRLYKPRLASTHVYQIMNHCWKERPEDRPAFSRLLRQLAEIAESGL

[11] = target: CDK7/Cyclin H/MNAT1 (Homo sapiens) (UniProt P51946+P50613+P51948); assay: Selectivity interaction (ProQinase) EUB0000171b CDK7; assay type: protein-complex assay
[12] = tested on: RAF proto-oncogene serine/threonine-protein kinase (Homo sapiens), P04049 [Y340D,Y341D]; assay: Selectivity interaction (ProQinase) EUB0000171b RAF1
RAF proto-oncogene serine/threonine-protein kinase (Homo sapiens), P04049 [Y340D,Y341D], sequence (P04049 whole entry Y340D/Y341D): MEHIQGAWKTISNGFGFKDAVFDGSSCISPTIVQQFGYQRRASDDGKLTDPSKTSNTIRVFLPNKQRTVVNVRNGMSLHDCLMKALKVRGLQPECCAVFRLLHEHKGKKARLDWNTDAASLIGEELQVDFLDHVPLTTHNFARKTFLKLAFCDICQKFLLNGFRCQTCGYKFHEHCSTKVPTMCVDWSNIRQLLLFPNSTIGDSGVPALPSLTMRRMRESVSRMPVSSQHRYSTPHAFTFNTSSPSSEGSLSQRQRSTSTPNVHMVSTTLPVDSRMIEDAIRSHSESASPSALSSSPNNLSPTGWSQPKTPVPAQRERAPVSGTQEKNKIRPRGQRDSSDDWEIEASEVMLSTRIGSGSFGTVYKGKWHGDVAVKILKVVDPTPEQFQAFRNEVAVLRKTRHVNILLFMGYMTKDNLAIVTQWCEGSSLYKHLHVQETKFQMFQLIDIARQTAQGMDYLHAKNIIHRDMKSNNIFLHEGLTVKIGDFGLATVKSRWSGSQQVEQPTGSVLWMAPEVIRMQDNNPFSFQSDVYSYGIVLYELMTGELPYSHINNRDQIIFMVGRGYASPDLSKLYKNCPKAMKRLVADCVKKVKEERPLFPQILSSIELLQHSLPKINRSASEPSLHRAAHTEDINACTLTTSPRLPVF

[13] = target: Proto-oncogene tyrosine-protein kinase Src (Homo sapiens, UniProt P12931); assay: Selectivity interaction (Upstate Kinase Profiler service (Millipore)) EUB0000056c SRC; settings: at 1 µM
Proto-oncogene tyrosine-protein kinase Src, sequence (P12931 2-536 limits assumed): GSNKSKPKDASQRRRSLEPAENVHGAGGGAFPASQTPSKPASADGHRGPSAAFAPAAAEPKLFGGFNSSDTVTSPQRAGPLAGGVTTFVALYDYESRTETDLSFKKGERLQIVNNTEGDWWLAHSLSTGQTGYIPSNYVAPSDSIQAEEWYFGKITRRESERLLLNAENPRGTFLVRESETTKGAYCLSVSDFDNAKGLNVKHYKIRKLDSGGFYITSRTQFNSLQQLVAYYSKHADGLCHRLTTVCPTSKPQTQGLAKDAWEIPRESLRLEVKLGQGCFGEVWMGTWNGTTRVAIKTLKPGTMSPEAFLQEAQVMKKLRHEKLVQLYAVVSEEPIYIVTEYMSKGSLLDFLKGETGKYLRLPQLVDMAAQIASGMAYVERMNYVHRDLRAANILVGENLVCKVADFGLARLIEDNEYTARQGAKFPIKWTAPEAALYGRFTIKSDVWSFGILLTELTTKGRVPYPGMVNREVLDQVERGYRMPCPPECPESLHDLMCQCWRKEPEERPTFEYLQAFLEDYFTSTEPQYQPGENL

[14] = target: Tyrosine-protein kinase ABL1 (Homo sapiens, UniProt P00519); assay: Selectivity interaction (Upstate Kinase Profiler service (Millipore)) EUB0000056c ABL1; settings: at 1 µM
[15] = target: Vascular endothelial growth factor receptor 1 (Homo sapiens) (UniProt P17948); assay: Selectivity interaction (Upstate Kinase Profiler service (Millipore)) EUB0000056c FLT1; settings: at 1 µM
[16] = target: Mitogen-activated protein kinase 6 (Homo sapiens) (UniProt Q16659); assay: Selectivity interaction (KinomeScan (DiscoverX)) EUB0000045b MAPK6
Mitogen-activated protein kinase 6 (Homo sapiens), sequence (Q16659 whole entry): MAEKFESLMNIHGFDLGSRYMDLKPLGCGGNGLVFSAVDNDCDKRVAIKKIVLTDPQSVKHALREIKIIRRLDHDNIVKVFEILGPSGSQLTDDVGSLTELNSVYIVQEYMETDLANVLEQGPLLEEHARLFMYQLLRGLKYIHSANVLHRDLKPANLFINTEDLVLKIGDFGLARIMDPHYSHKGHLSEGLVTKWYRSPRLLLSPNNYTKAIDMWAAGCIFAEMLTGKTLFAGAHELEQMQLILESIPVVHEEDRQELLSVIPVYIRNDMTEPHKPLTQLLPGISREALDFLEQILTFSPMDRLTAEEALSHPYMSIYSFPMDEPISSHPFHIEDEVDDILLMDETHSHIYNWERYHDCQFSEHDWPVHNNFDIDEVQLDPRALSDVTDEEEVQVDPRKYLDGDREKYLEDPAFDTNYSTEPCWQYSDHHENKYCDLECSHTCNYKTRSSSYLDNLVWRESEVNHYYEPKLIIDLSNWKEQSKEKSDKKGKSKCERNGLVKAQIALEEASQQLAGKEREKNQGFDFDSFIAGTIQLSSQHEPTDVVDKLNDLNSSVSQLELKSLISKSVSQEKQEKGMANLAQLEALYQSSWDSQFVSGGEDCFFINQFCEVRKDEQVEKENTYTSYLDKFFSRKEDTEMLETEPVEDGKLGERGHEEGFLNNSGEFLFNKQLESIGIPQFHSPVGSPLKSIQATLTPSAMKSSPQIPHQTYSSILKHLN

[17] = tested on: Tyrosine-protein kinase ABL1 (Homo sapiens), P00519 [F317L]; assay: Selectivity interaction (KinomeScan (DiscoverX)) EUB0000045b ABL1; settings: at 10 µM
[18] = target: Serine/threonine-protein kinase PAK 6 (Homo sapiens) (UniProt Q9NQU5); assay: Selectivity interaction (KinomeScan (DiscoverX)) EUB0000045b PAK6; settings: at 1 µM
[19] = target: Ephrin type-A receptor 5 (Homo sapiens) (UniProt P54756); assay: Selectivity interaction (KinomeScan (DiscoverX)) EUB0000666a EPHA5; settings: at 10 µM
[20] = target: STE20-like serine/threonine-protein kinase (Homo sapiens, UniProt Q9H2G2); assay: Selectivity interaction (Kinase panel (DSF assay)) EUB0001558a SLK

TRAF2 and NCK-interacting protein kinase (Homo sapiens), sequence (Q9UKE5 whole entry, looked up): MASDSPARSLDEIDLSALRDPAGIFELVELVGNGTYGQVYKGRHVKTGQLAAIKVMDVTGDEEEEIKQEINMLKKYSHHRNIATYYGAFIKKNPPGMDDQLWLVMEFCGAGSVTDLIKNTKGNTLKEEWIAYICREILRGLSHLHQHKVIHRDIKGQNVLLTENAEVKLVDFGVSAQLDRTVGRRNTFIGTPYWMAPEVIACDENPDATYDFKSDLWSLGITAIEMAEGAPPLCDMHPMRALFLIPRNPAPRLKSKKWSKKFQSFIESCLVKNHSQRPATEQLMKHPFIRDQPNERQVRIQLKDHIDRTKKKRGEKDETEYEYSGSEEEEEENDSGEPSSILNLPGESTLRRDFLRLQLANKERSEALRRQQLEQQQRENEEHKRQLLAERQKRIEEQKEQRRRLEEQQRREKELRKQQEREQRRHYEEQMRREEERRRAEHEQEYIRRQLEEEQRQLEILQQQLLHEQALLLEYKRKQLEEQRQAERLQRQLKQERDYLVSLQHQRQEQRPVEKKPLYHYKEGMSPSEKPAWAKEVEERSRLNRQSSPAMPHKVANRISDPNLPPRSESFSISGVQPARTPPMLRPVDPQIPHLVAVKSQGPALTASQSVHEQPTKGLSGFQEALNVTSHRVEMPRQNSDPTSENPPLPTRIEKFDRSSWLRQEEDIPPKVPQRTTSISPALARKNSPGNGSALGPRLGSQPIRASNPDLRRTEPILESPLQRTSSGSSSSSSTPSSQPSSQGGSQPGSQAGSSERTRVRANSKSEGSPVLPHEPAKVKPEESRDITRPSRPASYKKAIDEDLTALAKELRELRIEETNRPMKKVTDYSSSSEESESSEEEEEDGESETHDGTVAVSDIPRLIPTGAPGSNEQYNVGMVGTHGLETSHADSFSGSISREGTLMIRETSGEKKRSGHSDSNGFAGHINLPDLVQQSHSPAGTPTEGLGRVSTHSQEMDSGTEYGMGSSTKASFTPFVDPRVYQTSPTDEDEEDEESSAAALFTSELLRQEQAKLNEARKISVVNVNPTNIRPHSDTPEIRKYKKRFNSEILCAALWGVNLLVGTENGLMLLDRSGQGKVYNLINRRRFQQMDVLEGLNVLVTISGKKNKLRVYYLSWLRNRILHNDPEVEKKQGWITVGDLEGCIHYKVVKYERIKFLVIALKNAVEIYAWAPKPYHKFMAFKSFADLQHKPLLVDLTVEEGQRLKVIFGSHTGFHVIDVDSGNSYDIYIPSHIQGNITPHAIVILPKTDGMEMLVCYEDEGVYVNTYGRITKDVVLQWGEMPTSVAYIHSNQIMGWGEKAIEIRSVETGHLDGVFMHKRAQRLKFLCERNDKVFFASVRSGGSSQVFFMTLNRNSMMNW
Serine/threonine-protein kinase OSR1 (Homo sapiens), sequence (O95747 2-527 limits assumed): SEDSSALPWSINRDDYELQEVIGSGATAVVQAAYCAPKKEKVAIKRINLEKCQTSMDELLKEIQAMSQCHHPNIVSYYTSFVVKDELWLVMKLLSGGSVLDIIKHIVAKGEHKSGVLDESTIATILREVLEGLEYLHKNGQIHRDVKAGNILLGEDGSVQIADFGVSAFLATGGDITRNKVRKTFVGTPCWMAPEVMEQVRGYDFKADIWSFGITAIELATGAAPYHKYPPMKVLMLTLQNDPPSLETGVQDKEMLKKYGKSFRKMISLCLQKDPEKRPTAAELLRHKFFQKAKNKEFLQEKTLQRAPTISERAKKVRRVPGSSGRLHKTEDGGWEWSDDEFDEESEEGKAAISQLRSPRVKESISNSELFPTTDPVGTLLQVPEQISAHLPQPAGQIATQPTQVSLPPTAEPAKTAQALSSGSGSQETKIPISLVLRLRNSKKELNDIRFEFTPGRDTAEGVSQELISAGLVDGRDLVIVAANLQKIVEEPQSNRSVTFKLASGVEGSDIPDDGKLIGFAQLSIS

Cc1cc([C@@H](C)Nc2ccccc2C(=O)O)c2nc(N3CCOCC3)cc(=O)n2c1 [AZD-6482]
% of control [1]: 98%
% of control [2]: 100%

CN(C)C/C=C/C(=O)Nc1ccc(C(=O)N2CCCC(Nc3ncc(Cl)c(-c4c[nH]c5ccccc45)n3)C2)cc1 (stereo not drawn)
% of control [3]: 76%
% of control [4]: 78%

CC[C@@H]1[C@H](F)C(=O)N[C@@H]1COc1nccc2cc(C(N)=O)c(OC)cc12 [ZIMLOVISERTIB]
% of inhibition [5]: 17.5%
% of inhibition [6]: -10.7%

CN(C)CC#Cc1ccc2[nH]c3c(c2c1)-c1nc(N)ncc1CCC3
IC50 [7]: 440 nM

Cc1cc(F)c(C(=O)Nc2cccc(-c3nncn3C(C)C)n2)cc1-n1cnc(C2CC2)c1
% of control [8]: 100%

COCC(=O)NC/C=C/c1ccc2ncnc(Nc3ccc(Oc4ccc(C)nc4)c(C)c3)c2c1 [CP-724714]
% of control [9]: 100%

Nc1cnc(N2CCc3cc(S(=O)(=O)Nc4c(F)cc(Cl)cc4F)cc(N4CCCC4=O)c32)nc1 [TP-020n]
% of control [10]: 100%

C=CC(=O)Nc1cccc(C(=O)Nc2ccc(Nc3cc(-c4[nH]c(SC)nc4C)ccn3)cc2)c1
% of control ([11]; at 1 µM): 89%
% of control ([11]; at 5 µM): 86%
% of control ([12]; at 1 µM): 96%
% of control ([12]; at 5 µM): 92%

Cc1ccc(-c2ccc3c(ccc4sc5c(c43)NC[C@@H](C)NC5=O)n2)cn1
% of inhibition [13]: 12%
% of inhibition [14]: 18%
% of inhibition [15]: 21%

C=CC(=O)Nc1cc(-n2c(=O)ccc3cnc4ccc(-c5ccc(NS(C)(=O)=O)cc5)cc4c32)ccc1C
% of control ([16]; at 1 µM): 82%
% of control ([16]; at 10 µM): 100%
% of control [17]: 75%
% of control [18]: 98%

O=C(NOC[C@H](O)CO)c1ccc(F)c(F)c1Nc1ccc(I)cc1F
% of control [19]: 96%

CC(C)(O)[C@H](F)CN1Cc2cc(NC(=O)c3cnn4cccnc34)c(N3CCOCC3)cc2C1=O
dTM [20]: 1.7 K
